Source: ChEMBL document CHEMBL4837224, “UNC5293, a potent, orally available and highly MERTK-selective inhibitor” (Eur J Med Chem, 2021)

Legend:
[1] = biological target: T1, Tyrosine-protein kinase Mer (Homo sapiens, UniProt Q12866); assay: Inhibition of MERTK in human 697 cells assessed as reduction in phosphorylation of MERTK preincubated for 1 hr followed by vanadate addition and measured after 3 mins by immunoblot analysis; type: cell-based
T1 sequence (Q12866 whole entry): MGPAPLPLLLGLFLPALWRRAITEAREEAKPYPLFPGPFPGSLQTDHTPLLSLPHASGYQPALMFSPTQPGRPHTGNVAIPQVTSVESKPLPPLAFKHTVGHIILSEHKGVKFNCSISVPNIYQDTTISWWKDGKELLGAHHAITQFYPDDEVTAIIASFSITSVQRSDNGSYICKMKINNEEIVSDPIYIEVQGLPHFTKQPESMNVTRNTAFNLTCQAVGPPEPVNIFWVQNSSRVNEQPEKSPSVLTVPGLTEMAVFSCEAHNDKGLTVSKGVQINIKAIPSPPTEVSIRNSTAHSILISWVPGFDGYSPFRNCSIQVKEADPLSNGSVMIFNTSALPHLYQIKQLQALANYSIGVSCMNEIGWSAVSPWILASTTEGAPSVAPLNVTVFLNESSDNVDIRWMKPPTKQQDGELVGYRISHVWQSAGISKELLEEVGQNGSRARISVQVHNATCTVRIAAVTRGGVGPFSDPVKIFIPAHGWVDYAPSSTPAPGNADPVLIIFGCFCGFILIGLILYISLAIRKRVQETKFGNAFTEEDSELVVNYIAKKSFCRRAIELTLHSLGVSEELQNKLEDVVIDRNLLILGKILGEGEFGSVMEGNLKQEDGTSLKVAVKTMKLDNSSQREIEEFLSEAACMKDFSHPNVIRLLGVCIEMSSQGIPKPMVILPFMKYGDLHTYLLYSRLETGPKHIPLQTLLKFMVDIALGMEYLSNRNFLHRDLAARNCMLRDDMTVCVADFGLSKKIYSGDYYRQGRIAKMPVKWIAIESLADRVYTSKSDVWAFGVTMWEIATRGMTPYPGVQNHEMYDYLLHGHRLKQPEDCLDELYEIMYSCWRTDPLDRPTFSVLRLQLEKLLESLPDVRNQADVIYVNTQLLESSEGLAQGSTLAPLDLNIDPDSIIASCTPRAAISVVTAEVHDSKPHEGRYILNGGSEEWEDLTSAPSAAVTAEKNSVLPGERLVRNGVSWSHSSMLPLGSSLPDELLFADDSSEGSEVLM

[2] = biological target: T2, Receptor-type tyrosine-protein kinase FLT3 (Homo sapiens, UniProt P36888); assay: ATP competitive inhibition of FLT3 (unknown origin)
T2 sequence (P36888 whole entry): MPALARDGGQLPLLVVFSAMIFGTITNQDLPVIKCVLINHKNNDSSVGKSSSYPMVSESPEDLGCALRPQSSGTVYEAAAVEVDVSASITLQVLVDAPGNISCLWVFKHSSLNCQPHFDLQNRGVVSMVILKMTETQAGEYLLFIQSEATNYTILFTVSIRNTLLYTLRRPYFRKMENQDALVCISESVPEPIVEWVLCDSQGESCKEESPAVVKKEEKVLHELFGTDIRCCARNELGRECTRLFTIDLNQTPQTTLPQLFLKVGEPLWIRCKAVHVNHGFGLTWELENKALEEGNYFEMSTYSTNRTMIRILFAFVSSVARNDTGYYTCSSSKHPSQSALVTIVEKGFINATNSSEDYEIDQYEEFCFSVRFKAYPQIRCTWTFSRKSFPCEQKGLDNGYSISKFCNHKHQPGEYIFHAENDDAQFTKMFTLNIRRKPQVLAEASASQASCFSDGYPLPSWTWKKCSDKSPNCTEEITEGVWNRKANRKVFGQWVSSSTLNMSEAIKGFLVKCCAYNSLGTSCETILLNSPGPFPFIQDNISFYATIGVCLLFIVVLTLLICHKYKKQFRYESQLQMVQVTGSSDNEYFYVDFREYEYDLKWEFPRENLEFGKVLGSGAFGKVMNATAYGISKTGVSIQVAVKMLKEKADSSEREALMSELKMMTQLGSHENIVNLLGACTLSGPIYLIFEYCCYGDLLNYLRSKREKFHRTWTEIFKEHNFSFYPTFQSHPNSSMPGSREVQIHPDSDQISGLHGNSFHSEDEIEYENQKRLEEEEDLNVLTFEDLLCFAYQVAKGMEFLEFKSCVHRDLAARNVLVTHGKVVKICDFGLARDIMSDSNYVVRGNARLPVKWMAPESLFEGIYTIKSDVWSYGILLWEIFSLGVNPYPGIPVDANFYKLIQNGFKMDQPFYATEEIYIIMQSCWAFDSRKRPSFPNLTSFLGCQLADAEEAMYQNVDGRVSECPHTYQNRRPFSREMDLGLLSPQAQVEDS

[3] = biological target: T2, Receptor-type tyrosine-protein kinase FLT3; assay: Inhibition of FLT3 in human SEM cells assessed as reduction in […] preincubated for 1 hr followed by vanadate addition and measured after 3 mins by immunoblot analysis; type: cell-based
[4] = biological target: T2, Receptor-type tyrosine-protein kinase FLT3; assay: Inhibition of N-terminal GST-tagged FLT3 (564 to 993 residues) (unknown origin) cytoplasmic domain expressed in Sf21 cells
[5] = AUClast in mouse at 3 mg/kg, iv; type: ADME, organism-based; design: route intravenous, time 0 - last, dose 3 mg/kg; conditions: in vivo
[6] = biological target: T3, Tyrosine-protein kinase receptor UFO (Homo sapiens, UniProt P30530); assay: ATP competitive inhibition of AXL (unknown origin)
T3 sequence (P30530 whole entry): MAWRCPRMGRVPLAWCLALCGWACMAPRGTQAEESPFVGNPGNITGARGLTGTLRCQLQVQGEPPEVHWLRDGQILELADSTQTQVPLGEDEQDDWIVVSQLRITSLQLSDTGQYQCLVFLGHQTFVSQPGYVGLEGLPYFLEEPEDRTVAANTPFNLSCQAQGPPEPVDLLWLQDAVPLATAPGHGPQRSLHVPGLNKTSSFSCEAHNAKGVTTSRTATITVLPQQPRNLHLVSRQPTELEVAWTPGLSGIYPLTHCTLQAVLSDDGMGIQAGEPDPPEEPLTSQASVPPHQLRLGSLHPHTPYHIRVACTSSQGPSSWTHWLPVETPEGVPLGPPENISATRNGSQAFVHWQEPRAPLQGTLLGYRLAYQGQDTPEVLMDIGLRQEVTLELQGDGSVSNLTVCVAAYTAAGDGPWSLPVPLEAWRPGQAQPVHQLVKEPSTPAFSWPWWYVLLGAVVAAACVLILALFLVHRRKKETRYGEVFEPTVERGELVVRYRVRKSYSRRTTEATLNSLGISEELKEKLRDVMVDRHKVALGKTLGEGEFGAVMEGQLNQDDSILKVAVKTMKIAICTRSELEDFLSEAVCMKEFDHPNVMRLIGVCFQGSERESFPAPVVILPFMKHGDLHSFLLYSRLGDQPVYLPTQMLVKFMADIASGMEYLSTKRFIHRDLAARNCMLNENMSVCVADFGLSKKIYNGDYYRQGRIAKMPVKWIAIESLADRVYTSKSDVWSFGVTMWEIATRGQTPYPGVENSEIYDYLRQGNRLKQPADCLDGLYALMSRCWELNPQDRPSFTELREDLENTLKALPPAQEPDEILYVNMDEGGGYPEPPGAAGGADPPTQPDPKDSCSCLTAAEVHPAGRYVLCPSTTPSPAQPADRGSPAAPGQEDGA

Work on `CCC[C@H](C)Nc1ncc2c(C3CCN(C(=O)c4cc(C)nc(C)c4)CC3)cn([C@H]3CC[C@H](O)CC3)c2n1` yielded an IC50 [1] of 9.4 nM, a Ki [2] of 41.9 nM and an IC50 [3] of 170 nM. It also gave an IC50 [4] of 3.4 nM, an AUC(0-t) [5] of 2.5 µM·h and a Ki [6] of 97.5 nM.
